According to publication PMC11904221 (EMBO Molecular Medicine, 2025):
In brackets after ≈: the same amount, converted by molar mass. Several values for one entry are separate records, joined by “and”; a condition that tells them apart may be missing. Equal entries are not always repeated. Where two headings read alike, the source gives them in different places. Where a SMILES comes first, the peptide text is derived from it.

What was measured:
[1] = target: T1, apelin receptor (Homo sapiens, UniProt P35414); test: Radioligand binding assay; design: purchased Euroscreen FAST-020B; conditions: competition with [125I]-(Pyr1)-apelin-13, apelin receptor membrane extracts 2 μg protein/well, 96-well plates
T1 sequence (P35414 1-380): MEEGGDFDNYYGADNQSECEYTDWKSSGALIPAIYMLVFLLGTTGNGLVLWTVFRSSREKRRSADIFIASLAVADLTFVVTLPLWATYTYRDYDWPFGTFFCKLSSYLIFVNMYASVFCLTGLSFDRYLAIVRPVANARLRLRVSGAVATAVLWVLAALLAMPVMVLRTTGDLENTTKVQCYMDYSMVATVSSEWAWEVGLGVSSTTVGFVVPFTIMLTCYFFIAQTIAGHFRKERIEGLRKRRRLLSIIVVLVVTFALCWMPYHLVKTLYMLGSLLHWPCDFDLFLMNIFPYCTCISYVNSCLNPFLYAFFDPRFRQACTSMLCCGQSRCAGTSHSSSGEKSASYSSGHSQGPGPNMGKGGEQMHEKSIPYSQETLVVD
Protocol: (§1) Scale bar, 50 µm. (C) Radioligand binding assay. […] Data are representative of three independent experiments and data shown as the mean ± s.e.m. […] The signals were sorted from high (red) to low (blue) intensity/phosphorylation. […] Source data are available online for this figure.
Dose-response curves were established and the estimated IC50 values were calculated for each compound.

[2] = target: Furin (Homo sapiens, UniProt P09958)
[3] = in vitro
[4] = liver microsomes
[5] = in vitro; conditions: human
[6] = in vitro; remark: listed apart in the source
[7] = in vivo; conditions: both sexes, BALB/c, mouse, ip
Protocol: Pharmacological profile of APLN-DM peptide
Maximal Tolerated Dose (MTD) study of APLN -DM in mice
Six groups comprising six Balb/C mice per group (3 males and 3 females) were assigned to the study. In each gender, one control group (1 Male (M)/1 female (F)) received the reference solution (vehicle) and 5 […]
mg/kg (4M/4F), 2000 mg/kg (5M/5F) and 1500 mg/kg (6M/6F). APLN-DM peptide was administrated via intra-peritoneal (IP) single injection at day 1 followed by observation during 14 days. During the study, mortality, morbidity, general clinical signs and bod y weight were recorded. In the end of the study pathology and organ necropsy examination were performed. Thereby, APLN-DM peptide and vehicle were administered to mice according to Table-1 and their effects were analyzed according to Table-2.
Each test item dose was administrated to 3 female and 3 male mice. The administration was performed IP at a dose volume of 10 ml/kg. Dosing was performed according to Figure-1 and each increase in dose pending on the outcome of the previous dose (results of clinical signs). The lag time between the increasing doses was approximately 48h.
No. (n=) Mouse# Treatment Dose Level administration administratio […]
Table-1. Study design -1. […], […]
Study Day* Procedure Body Weight Clinical Mortality & Organ
Sign Morbidity observation
2-14 - Twice weekly Once -
15 Termination √ √ Gross pathology
Figure 1 - Decisional tree for successive dosing for MTD determination […]
At study termination, body weight (Figure 2 and Figure 3) and gross pathology abnormalities were analyzed in all animals. Main pathological finding were blood clots in intestine and chest cavity. Treatment-related clinical adverse side effects (purple tail, lethargy, decreased motor activity) were observed also in groups treated either with 200, 500, 1000 and 1500 mg/kg. The tail recovered a normal color after 1 hour in all dose groups. […]
abnormalities were detected in all male and female animals from these groups at the scheduled termination […]

[8] = test system: CT-26 tumors; assay type: in vivo; conditions: Appendix Fig. S13
Source text: (§2) Tumor growth, apoptosis, proliferation, and/or the angiogenic index of the developed tumors were first evaluated.
(§3) (A) Scheme and workflow of apelin-dm preclinic studies. […] (B–D) Error bars indicate s.e.m. center values indicate mean (Mann–Whitney U test). […] The percentage of relative staining intensity corresponding to CD31, Ki67, and BIM expression in CT-26 and MC-38 tumors of treated mice are shown in (I–N). Scale bar, 100 µm. Data represent mean ± s.e.m. of 3–4 independent experiments. P values were calculated with the Student t test in GraphPad. […] Quantification of tumor area (P) and vascularized area (Q) relative to control untreated CAMs (n = 3 CAM per group) assigned 100%. Data represent mean ± s.e.m. P values were calculated with the Student t test in GraphPad. […] (S, T) The average blood flow expressed in % relative to blood flow measured in […] (S) and MDA-MB231 (T) developed tumors. Data represent mean ± s.e.m. of 3–4 independent experiments. P values were calculated with the Student t test in GraphPad. Source data are available online for this figure.
Additional experiments involved injecting 1 × 10^6 control CT-26/MC-38/MDA-MB231 cells into BALB/c, C57BL/6, or nude mice, respectively. […] LASER Doppler imaging assessed total blood flow, with FlowR® Hemodynamics visualization used for analysis. Results were expressed as % relative to pre-treatment tumor blood flow.

[9] = pH 7.4
[10] = target: T1, apelin receptor; test: Plasmon waveguide resonance (PWR) ligand binding; design: expressed in transfected cells; host or cells: HEK cells overexpressing apelin receptor (membrane fragments); conditions: HEK-apelin receptor cell membrane fragments on polylysine-treated sensor, 22 °C, n = 3
Source text: (§4) Red arrows indicate the direction of vessel formation. […] All data are representative of three independent experiments. […] The two Furin cleavage sites are shown. […] (S–U) Plasmon waveguide resonance (PWR). […] Source data are available online for this figure.

[11] = Pharmacokinetic profile in mice, LC/MS; assay type: in vivo, mouse; conditions: Balb/C mice plasma, LC/MS, estimated from the 5 and 10 min samples
Protocol: Pharmacokinetic profile of APLN-DM in mice
The aim of the current study was to evaluate pharmacokinetic properties of APLN-DM peptide administrated intravenously (IV) or intraperitoneously (IP) in Balb/C mice. […]
for the IP group). Development of quantification method was performed using liquid chromatography coupled to mass spectrometry (LC/MS).
Results: Samples obtained in vivo were analyzed according to quantification-developed method and the peptide was detectable until 15 minutes after administration. Analysis allowed determining that APLN-DM […]
All animals were divided to three groups of 27 animals, one of 12 animals and one of 3 animals (vehicle) and will receive the corresponding test item according to Table 1. Each animal was weighed and administered at the appropriate volume.
Concentration ROA Blood Individual animal numbers
Group No. Treatment Dose Collect
Table 11 - Group allocation
Development of analytic method
Standard range from 0.5 to 100 µM was prepared and analysed for each fragmented ion as previously […]
Standard curves obtained for each ion are represented in Figure 6.
Figure 8: Standard curves obtained by quantification of each fragmented ion The best linearity was obtained by quantifying the fragmented ion 785 (z=5).
Quantification of APLN-DM in samples
Summary of analytical method development:
Quantification method was performed according to previous work. In summary, samples were analysed with a LC-MS triple quadripole system (ESI QqQ). The chromatographic system was a UPLC activity (Waters) coupled to a mass spectrometer TSQ Quantum Ultra (Thermo) equipped with triple quadripole analyser and electrospray ionisation (ESI) system. The selected column was Kinetex F5 […] 50x2.1 mm (Phenomenex). The analysis was made by quantifying fragmented ion z=5 (m/z=785) in samples compared […]
quantitation was previously determined to be 0.5 µM. Samples were analysed after protein precipitation as […]
In vivo phase samples analysis
As the stability of peptide is low, even in frozen plasma, it was decided to re-run the in vivo phase for the highest dose and to use freshly prepared samples.
26 samples were used for analysis.
Only samples taken 5 and 10 minutes after peptide administration presented detectable concentrations (see
Table 9). While 15 min results were on the level of accuracy (linearity threshold values). At a later time […]
estimated based on the 5 and 10 min measurements.
Sample ID Area Calculated amount

[12] = test system: retinal vasculature; test: Retina angiogenesis assay; assay type: in vivo, mouse; design: unit not given here; conditions: P5 mice, isolectin B4, individual values; control 74-89
Source text: as §4
Angiogenesis is a complex intercellular process involving the organization of various cells.
Following the treatment period, the mice were humanely euthanized, and their eyes were harvested. […] The retinas were carefully isolated and fixed in 4% PFA for 2 h at room temperature or overnight at 4 °C. After fixation, the retinas were blocked and permeabilized in a solution containing 1% bovine serum albumin (BSA) and 0.5% Triton X-100 overnight at 4 °C. Subsequently, the retinas were washed three times with a buffer solution composed of 0.5% Triton X-100, 1 mM CaCl2, 1 mM MgCl2, and 1 mM MnCl2 in PBS, pH 6.8. The retinas were then incubated with FITC-labeled Isolectin B4 (1:1000; Vector Laboratories) to label blood vessels. Following staining, the retinas were embedded in Tissue-Tek OCT Compound, and 10-μm cryosections were cut. Confocal immunofluorescence images were acquired with an inverted Nikon C2si Eclipse Ti-S microscope and analyzed using NIS-ElementsAR software (Nikon Instruments Europe B.V.).

[13] = test system: CT-26 cells on CAM; test: CAM implanted with CT-26 cells, tumor and vascularized area; assay type: in vivo, chick; conditions: individual values
Source text: as §2, §3
Fertilized eggs were allowed to mature ex ovo. […] Immunohistology in toto was performed for vessel staining.

[14] = test system: chick chorioallantoic membrane; test: Chick chorioallantoic membrane (CAM) angiogenesis assay; conditions: 48 h, 100 nM each, individual CAM, n = 8; control 99-131
Protocol: Fertilized eggs were allowed to mature ex ovo. […] Immunohistology in toto was performed for vessel staining. Images of CAM vessels were acquired using a Zeiss Axiophot microscope.

[15] = test system: CT-26 and MC-38 cells; test: Soft agar, proliferation and apoptosis of cells expressing APLN or APLN-DM; conditions: cancer cells expressing the construct
Protocol: For the apoptosis assay, tumor cells were grown to 70% confluency, washed repeatedly to remove serum, and then incubated for the indicated time periods in serum-free media. Cells were washed and stained with FITC-labeled Annexin V using the FITC Annexin V Apoptosis Detection Kit I (BD Pharmingen^TM), according to the manufacturer’s instructions.
P values by two-tailed unpaired t-test.

[16] = test system: CT-26 and MC-38 tumors; test: Subcutaneous tumor growth of cells stably expressing APLN or APLN-DM; assay type: in vivo, mouse
[17] = test system: AKT and ERK; test: Phosphorylation of AKT and ERK in HUVEC, SMC, CT-26, HEK 293; assay type: cell-based; conditions: HUVECs, SMCs, CT-26 cells, HEK-293 cells
Source text: as §1

Furin, sequence (P09958 108-794, species assumed): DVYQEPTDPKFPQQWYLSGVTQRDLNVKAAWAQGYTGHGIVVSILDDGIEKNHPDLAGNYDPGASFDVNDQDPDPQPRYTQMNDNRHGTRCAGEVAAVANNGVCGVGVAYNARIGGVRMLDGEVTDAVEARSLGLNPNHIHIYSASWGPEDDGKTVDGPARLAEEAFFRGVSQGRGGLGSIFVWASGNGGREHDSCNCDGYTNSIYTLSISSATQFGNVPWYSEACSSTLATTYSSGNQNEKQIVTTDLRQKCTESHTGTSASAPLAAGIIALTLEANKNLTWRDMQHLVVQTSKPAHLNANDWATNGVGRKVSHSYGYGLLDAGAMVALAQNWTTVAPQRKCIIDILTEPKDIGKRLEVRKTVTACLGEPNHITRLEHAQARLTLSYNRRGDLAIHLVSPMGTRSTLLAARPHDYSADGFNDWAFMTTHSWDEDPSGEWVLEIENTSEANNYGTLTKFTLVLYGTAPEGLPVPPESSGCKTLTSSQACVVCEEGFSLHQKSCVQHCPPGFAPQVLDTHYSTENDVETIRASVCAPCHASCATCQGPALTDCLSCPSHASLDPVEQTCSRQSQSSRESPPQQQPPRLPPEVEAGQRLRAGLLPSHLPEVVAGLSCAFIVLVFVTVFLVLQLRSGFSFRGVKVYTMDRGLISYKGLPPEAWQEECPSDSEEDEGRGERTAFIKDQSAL

For CSCC[C@H](NC(=O)[C@@H]1CCCN1C(=O)CNC(=O)[C@H](CCCCN)NC(=O)[C@H](Cc1c[nH]cn1)NC(=O)[C@H](CO)NC(=O)[C@H](CC(C)C)NC(=O)[C@H](CCCNC(=N)N)NC(=O)[C@@H]1CCCN1C(=O)[C@H](CCCNC(=N)N)NC(=O)[C@H](CCC(N)=O)NC(=O)[C@H](CO)NC(=O)[C@H](CO)NC(=O)[C@H](Cc1ccccc1)NC(=O)[C@H](CCCCN)NC(=O)[C@H](CO)NC(=O)[C@H](CO)NC(=O)CNC(=O)CNC(=O)[C@H](CCC(N)=O)NC(=O)[C@H](Cc1c[nH]c2ccccc12)NC(=O)[C@@H]1CCCN1C(=O)CNC(=O)[C@@H]1CCCN1C(=O)CNC(=O)[C@H](CC(N)=O)NC(=O)[C@H](CCCNC(=N)N)NC(=O)[C@H](CO)NC(=O)CNC(=O)[C@H](CCCNC(=N)N)NC(=O)[C@@H]1CCCN1C(=O)[C@H](CCC(N)=O)NC(=O)[C@@H](NC(=O)[C@@H](N)CC(C)C)C(C)C)C(=O)N1CCC[C@H]1C(=O)N[C@@H](Cc1ccccc1)C(=O)O [apelin-dm] (H-LVQPRGSRNGPGPWQGGSSKFSSQRPRLSHKGPMPF-OH), the IC50 [1] was 0.45 nM and 0.47 nM, the “cleavage by Furin” value [2] was “more stable and not cleaved” and the “% Protein bound, Mean” value [3] was 26%. For the same compound, the “Intrinsic clearance in liver microsomes” value [4] was < 115.5 µL/min/mg, the “Half-life, Mean” value [5] was 18.68 h and the half-life ([5]; plasma) was > 18 h. For the same compound, the “% Protein bound, Mean” value [6] was 54%, the fraction unbound ([6]; plasma) was ~0.5 and the MTD at 336 h [7] was > 1000 mg/kg. The “toxicity in treated tumor-bearing mice” value [8] was “no obvious toxicity in treated mice was observed”, the “Solubility, Mean” value [9] was 187.3 µM (≈ 734 µg/mL) and the Kd [10] was ~0.03 nM. The “half-life in vivo in mice” value [11] was 0.333 h.

For “APLN: wild-type APLN stably expressed in CT-26 or MC-38 cells by lentiviral vector (QRPRLSHKGPMPF)”, the retina vascularization [12] was 84.9099 and 86.8403 and 90.0489 and 88.5208 and 85.3624 and 89.8292 and 92.0113 and 89.1254 and 85.4258 and 94.4967 and 90.4185 and 89.0824 and 95.2514 and 99.1254 and 85.2991 and 91.6992 and 83.1786 and 91.7618 and 93.6101, the “CAM CT-26 quantification (Fig5P file)” value ([13]; same data as sheet 5N) was 168 and 189 and 190 and the “CAM CT-26 quantification (sheet 5N)” value ([13]; tumor or vascularized area not given) was 168 and 189 and 190. For the same compound, the CAM vessel density [14] was 120 and 252 and 210 and 201 and 189 and 155 and 145 and 136, the anchorage-independent growth [15] was “twofold increased” and the tumor volume ([16]; expressing cells, Rag2/γc, day 8, control 60.45, in mm³ (unit assumed)) was 180.48. It also gave a tumor volume ([16]; expressing cells, Rag2/γc, day 11, control 142, in mm³ (unit assumed)) of 571, a tumor volume ([16]; expressing cells, Rag2/γc, day 13, control 583.25, in mm³ (unit assumed)) of 974.2 and a tumor volume ([16]; expressing cells, Rag2/γc, day 15, control 887.52, in mm³ (unit assumed)) of 1295.1. For the same compound, the tumor volume ([16]; expressing cells, Rag2/γc, day 18, control 1263.6, in mm³ (unit assumed)) was 2221, the tumor volume ([16]; expressing cells, Rag2/γc, day 20, control 2040.04, in mm³ (unit assumed)) was 2868 and the tumor volume ([16]; tumor cells stably expressing the construct, Rag2/γc mice (Fig 2C), day 7, control 38.75) was 39.12.

With apelin the “ERK and AKT activation” value [17] was “activated ERK and AKT”.
